According to US5821267A, “Amidino derivatives useful as nitric oxide synthase inhibitors” (priority 1996, dated 1998):

Tests used:
[1] = target: T1, Rat brain constitutive nitric oxide synthase (rnNOS) (Rattus norvegicus, UniProt P29476); assay: Citrulline Assay for Nitric Oxide Synthase, rat brain constitutive NOS; format: biochemical; conditions: rat brain cNOS; 50 nM calmodulin, 30 μM L-arginine, 37° C., 15 minutes
T1 construct: an extract of rat cerebellum and partially purified by DEAE-Sepharose chromatography; from tissue; host or cells: rat cerebellum (extract, partially purified by DEAE-Sepharose)
Method: Nitric oxide synthase activity was measured by monitoring the conversion of [3H]-arginine to [3H]-citrulline. Mouse inducible nitric oxide synthase (miNOS) was prepared from an extract of LPS-treated RAW 264.7 cells and partially purified by DEAE-Sepharose chromatography. Rat brain constitutive nitric oxide synthase (rnNOS) was preparedfrom an extract of rat cerebellum and partially purified by DEAE-Sepharose chromatography. Enzyme and inhibitors were incubated at 37° C. for 15 minutes in a reaction volume of 100 μL with the following components added to start the reaction: 50 mM Tris (pH 7.6), 1 mg/ml bovine serum albumin, 1 mM DTT, 2 mM CaCl2, 10 μM FAD, 10 μM tetrahydrobiopterin, 30 μM L-arginine containing L-[2,3-3H]-arginine at 300 cpm/pmole and 1 mM NADPH. For constitutive NOS, 50 nM calmodulin was also added. The reaction was terminated by addition of cold stop buffer containing 10 mM EGTA, 100 mM HEPES, pH 5.5 and 1 mM citrulline. [3H]-Citrulline was separated by chromatography on Dowex 50W X-8 cation exchange resin and radioactivity determined with a liquid scintillation counter.

[2] = tested on: intracellular iNOS in RAW 264.7 cells; assay: Raw Cell Nitrite Assay; format: cell-based; conditions: Mus musculus, RAW264.7, LPS-induced RAW 264.7 cells, 30 μM L-arginine, 1 h at 37° C.
Method: RAW 264.7 cells are plated to confluency on a 96-well tissue culture plate grown overnight (17 h) in the presence of LPS to induce NOS. A row of 3-6 wells were left untreated and served as controls for subtraction of nonspecific background. The media was removed from each well and the cells are washed twice with Krebs-Ringers-Hepes (25 mM, pH 7.4) with 2 mg/ml glucose. The cells are then placed on ice and incubated with 50 μL of buffer containing L-arginine (30 μM) +/- inhibitors for 1 h. The assay is initiated by warming the plate to 37° C. in a water bath for 1 h. Production of nitrite by intracellular iNOS is linear with time. To terminate the cellular assay, the plate of cells is placed on ice and the nitrite-containing buffer removed and analyzed for nitrite using a previously published fluorescent determination for nitrite. All values are the average of triplicate wells and are compared to a background-subtracted induced set of cells (100% value).

[3] = target: T2, Mouse inducible nitric oxide synthase (miNOS) (Mus musculus, UniProt P29477); assay: Citrulline Assay for Nitric Oxide Synthase, mouse inducible NOS; format: biochemical; conditions: mouse iNOS; 30 μM L-arginine, 37° C., 15 minutes
T2 construct: was prepared from an extract of LPS-treated RAW 264.7 cells and partially purified by DEAE-Sepharose chromatography; endogenous in cells; host or cells: LPS-treated RAW 264.7 cells (extract, partially purified by DEAE-Sepharose)
T2 sequence (P29477 whole entry): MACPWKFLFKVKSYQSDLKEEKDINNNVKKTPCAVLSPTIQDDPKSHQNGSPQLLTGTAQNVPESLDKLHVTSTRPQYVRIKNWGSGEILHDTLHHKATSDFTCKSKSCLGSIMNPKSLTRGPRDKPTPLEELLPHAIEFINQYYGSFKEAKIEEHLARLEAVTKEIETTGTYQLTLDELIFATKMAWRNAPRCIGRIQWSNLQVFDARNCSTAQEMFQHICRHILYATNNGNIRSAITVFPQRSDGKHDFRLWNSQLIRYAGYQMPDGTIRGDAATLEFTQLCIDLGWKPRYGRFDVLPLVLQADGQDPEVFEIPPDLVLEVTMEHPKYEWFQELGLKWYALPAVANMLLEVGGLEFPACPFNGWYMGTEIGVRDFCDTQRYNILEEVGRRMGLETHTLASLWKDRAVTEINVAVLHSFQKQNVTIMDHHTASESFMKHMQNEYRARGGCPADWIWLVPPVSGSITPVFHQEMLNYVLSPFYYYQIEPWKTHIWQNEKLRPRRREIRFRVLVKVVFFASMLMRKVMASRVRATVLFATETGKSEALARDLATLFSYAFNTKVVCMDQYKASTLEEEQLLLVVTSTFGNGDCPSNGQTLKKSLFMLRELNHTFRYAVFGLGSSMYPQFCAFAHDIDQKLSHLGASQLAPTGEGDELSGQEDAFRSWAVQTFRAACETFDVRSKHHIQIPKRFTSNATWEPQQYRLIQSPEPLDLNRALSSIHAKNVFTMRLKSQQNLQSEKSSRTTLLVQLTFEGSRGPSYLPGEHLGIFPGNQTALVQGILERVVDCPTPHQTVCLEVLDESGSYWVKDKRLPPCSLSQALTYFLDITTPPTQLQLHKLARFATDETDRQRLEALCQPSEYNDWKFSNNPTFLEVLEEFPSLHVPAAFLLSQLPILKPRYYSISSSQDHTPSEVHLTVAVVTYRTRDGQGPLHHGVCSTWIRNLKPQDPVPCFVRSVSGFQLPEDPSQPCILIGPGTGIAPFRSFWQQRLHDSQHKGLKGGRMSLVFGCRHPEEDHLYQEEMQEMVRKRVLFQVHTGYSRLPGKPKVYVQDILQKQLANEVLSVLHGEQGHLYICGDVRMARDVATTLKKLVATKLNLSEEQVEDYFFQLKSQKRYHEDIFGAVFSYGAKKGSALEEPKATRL

IC50 [1] [µM] | IC50 [2] [µM] | IC50 [3] [µM] | Compound
7 | 60 | 2 | CSCC(=N)N [Example 11]
10 | 46 | 2.3 | N=C(N)C1CC1 [Example 2, Cyclopropylcarbamidine]
31 |  | 27 | CC(C)C(=N)N [Example 3, Isopropylcarbamidine]
44 |  | 16 | CCC(=N)N [Example 5, Ethylcarbamidine]
3 | 158 | 3 | N=C(N)c1ccco1 [Example 9, 2-Amidinofuran]
7.3 |  | 2 | CCCC(=N)N [Example 4, 1-Propylcarbamidine]
1.3 | 7 | 1 | N=C(N)c1cccs1 [Example 8, 2-Amidinothiophene]
